Measured values reported in publication PMC11311870, “Catalytic Mode and Product Specificity of an α-Agarase Reveal Its Direct Catalysis for the Production of Agarooligosaccharides” (Foods, 2024).

Biological target: T1, Cm-AGA (Catenovulum maritimum, UniProt A0A0J8H064)
T1 construct: gene XM47_01860
T1 sequence (A0A0J8H064 27-1466): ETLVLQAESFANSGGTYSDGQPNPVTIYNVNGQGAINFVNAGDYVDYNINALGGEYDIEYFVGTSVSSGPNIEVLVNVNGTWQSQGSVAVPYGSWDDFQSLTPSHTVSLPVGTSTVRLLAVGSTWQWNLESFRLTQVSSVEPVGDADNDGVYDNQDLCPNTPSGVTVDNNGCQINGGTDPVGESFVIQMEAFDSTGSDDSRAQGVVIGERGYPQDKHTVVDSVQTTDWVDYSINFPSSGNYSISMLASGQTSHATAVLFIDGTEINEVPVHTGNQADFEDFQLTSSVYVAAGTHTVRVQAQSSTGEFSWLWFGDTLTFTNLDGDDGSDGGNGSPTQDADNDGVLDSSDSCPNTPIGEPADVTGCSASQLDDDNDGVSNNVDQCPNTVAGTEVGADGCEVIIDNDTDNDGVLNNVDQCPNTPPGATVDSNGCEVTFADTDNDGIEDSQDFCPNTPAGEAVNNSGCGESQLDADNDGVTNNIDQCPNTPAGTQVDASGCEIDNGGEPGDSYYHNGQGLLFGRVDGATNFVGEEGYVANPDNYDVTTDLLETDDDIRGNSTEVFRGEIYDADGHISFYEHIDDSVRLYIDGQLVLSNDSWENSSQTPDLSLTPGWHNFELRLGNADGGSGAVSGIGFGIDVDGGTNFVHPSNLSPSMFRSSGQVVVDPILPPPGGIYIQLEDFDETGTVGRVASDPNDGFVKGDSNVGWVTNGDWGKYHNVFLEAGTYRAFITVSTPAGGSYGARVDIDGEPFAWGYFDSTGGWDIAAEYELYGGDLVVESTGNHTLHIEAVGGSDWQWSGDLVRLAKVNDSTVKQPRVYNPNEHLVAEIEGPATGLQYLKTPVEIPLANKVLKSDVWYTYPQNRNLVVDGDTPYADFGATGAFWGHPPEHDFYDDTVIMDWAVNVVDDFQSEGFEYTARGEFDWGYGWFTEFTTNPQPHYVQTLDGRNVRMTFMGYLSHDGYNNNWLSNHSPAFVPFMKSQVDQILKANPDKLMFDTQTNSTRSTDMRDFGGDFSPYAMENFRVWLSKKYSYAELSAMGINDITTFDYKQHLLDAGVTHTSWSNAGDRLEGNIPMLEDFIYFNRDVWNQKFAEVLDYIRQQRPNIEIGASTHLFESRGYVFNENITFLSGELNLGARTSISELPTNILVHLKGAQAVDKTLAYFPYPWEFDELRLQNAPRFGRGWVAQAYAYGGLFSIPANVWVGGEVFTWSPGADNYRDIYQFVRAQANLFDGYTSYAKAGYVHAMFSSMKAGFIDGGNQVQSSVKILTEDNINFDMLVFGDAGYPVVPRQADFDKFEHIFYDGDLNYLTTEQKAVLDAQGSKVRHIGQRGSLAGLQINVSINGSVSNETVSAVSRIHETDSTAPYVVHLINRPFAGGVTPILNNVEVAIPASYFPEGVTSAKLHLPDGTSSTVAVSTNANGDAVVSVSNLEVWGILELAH
Assay: HPAEC-PAD product analysis
Format: biochemical
Conditions: pH not stated for this reaction (in water); 35 °C, 24 h; 5 mg/mL stock

OC[C@H]1O[C@@H](O[C@H]2[C@H]3OC[C@@H]2O[C@@H](O[C@H]2[C@@H](O)[C@@H](CO)O[C@@H](O[C@H]4[C@H]5OC[C@@H]4O[C@@H](O[C@H]4[C@@H](O)[C@@H](CO)OC(O)[C@@H]4O)[C@H]5O)[C@@H]2O)[C@H]3O)[C@H](O)[C@@H](O[C@@H]2O[C@H]3CO[C@@H]([C@@H]2O)[C@@H]3O)[C@H]1O (stereo partly shown) [NA6, neoagarohexaose]
HPAEC-PAD product analysis: the products of Cm-AGA-mediated NA6 hydrolysis were relatively complex (Figure 8D)
